Laboratory results: ChEMBL document CHEMBL1201862, “PubChem BioAssay data set” (2004)
Activity calls are given as the source filed them.

What was measured:
[1] = target: T1, Sentrin-specific protease 6 (Homo sapiens, UniProt Q9GZR1); format: functional;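 also: Luminescence-based dose-response confirmatory assay of SENP6 inhibition, following up an ultra-high-throughput screen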
T1 sequence (Q9GZR1 whole entry): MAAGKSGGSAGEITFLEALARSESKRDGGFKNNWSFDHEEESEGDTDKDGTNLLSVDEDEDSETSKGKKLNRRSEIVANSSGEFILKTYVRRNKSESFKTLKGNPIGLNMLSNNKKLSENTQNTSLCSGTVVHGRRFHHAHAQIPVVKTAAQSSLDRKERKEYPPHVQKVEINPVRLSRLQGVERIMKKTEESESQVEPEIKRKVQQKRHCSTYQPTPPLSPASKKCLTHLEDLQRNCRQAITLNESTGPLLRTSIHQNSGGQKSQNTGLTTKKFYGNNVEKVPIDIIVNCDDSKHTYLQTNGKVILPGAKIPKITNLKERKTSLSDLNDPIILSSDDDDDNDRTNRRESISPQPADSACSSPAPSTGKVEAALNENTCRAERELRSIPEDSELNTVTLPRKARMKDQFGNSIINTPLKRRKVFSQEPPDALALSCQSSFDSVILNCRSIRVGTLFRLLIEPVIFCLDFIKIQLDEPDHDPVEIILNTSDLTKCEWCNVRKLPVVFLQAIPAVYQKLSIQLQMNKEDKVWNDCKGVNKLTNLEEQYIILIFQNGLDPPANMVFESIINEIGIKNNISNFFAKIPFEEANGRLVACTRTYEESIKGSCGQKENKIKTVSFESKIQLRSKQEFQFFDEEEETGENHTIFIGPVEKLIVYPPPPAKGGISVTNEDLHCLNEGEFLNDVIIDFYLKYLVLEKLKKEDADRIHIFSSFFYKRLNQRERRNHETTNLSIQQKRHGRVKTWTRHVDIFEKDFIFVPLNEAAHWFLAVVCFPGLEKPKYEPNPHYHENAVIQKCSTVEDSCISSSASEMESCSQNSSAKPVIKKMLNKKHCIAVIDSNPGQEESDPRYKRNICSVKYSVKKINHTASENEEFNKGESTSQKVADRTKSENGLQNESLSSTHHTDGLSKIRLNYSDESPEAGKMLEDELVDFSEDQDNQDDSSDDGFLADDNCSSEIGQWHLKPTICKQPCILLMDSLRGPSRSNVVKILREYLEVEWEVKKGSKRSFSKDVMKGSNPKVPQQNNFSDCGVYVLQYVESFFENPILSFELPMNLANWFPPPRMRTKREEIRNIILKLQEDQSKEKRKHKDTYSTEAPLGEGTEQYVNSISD

[2] = target: T2, Sentrin-specific protease 8 (Homo sapiens, UniProt Q96LD8); format: functional;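 also: luminescence read-out of SENP8 inhibition, dose-response confirmation following an ultra-high-throughput screen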
T2 sequence (Q96LD8 whole entry): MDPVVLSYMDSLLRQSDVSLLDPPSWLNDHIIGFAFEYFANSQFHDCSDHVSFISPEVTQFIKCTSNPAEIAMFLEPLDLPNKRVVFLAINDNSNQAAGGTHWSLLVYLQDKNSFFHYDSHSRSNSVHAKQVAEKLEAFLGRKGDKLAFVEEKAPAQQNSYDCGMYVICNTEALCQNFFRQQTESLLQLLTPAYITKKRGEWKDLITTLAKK

[3] = target: T3, Caspase-3 (Homo sapiens, UniProt P42574); format: functional;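 also: Dose-response selectivity test against caspase-3 for candidate inhibitors of sentrin-specific proteases (SENPs)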
T3 sequence (P42574 whole entry): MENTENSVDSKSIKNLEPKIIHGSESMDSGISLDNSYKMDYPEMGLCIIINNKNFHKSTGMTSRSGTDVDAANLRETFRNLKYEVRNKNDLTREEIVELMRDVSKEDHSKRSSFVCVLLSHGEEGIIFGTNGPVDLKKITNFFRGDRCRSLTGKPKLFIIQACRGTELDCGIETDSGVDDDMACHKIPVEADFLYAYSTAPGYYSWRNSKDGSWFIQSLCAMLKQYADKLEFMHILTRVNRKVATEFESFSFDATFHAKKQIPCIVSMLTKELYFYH

[4] = Artemis endonuclease inhibitor potency, dose response, biochemical, fluorescence intensity (AID 720701); format: functional;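 also: Artemis endonuclease enzyme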
[5] = target: T4, Sentrin-specific protease 7 (Homo sapiens, UniProt Q9BQF6); format: functional;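 also: Luminescence-based dose-response confirmation of ultra-high-throughput screening hits, measuring inhibition of SENP7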
T4 sequence (Q9BQF6 whole entry): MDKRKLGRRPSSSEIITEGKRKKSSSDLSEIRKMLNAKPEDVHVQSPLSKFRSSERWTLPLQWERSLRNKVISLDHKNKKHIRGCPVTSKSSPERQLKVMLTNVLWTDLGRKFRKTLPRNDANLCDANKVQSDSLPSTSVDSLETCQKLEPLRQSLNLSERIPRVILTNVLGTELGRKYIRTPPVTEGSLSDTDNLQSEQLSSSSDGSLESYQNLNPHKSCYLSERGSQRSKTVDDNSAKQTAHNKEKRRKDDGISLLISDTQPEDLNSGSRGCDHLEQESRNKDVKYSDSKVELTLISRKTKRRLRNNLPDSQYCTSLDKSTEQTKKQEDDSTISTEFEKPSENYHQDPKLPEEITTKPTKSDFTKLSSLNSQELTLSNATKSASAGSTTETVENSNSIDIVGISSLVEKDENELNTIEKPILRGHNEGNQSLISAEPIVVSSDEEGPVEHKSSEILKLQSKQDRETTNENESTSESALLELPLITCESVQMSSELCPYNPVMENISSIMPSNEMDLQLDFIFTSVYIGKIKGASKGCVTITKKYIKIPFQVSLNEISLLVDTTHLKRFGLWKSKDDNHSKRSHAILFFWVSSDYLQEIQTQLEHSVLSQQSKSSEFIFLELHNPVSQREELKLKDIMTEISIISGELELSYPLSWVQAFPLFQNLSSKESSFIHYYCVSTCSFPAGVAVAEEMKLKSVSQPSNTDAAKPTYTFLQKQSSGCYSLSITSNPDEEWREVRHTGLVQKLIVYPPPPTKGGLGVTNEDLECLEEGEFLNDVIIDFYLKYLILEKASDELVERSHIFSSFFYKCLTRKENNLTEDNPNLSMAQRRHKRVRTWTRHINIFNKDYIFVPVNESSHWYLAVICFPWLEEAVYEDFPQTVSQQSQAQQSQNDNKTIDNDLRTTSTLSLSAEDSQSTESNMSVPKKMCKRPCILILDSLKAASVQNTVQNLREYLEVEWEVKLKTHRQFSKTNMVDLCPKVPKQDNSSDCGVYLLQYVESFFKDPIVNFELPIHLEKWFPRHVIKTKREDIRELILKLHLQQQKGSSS

[6] = RKO cell viability reduction, dose response, CellTiter-Glo luminescence (AID 1117322); format: functional
[7] = SNU-C1 cell viability reduction, dose response, CellTiter-Glo luminescence (AID 1117323); format: functional, cell-based
[8] = cytotoxicity toward HCT116 cells – cell-based, CellTiter-Glo luminescence, IC50, dose response (AID 1117332); format: functional; settings: HCT-116
[9] = cytotoxicity toward HT-29 cells – cell-based, CellTiter-Glo luminescence, IC50, dose response (AID 1117330); format: functional
[10] = CellTiter-Glo luminescent dose response of DLD-1 viability loss (AID 1117352); format: functional
[11] = Concentration-dependent survival of SW480 colon cancer line, luminescence detection with CellTiter-Glo, half-maximal inhibitory concentration (AID 1117338); format: functional
[12] = TB: CFU replicating Measured in Microorganism System Using Imaging - 7108-05_Inhibitor_Dose_DryPowder_Activity_Set2.; format: functional
[13] = P. falciparum Dd2 blood-stage growth inhibition, dose response, SYBR Green fluorescence, erythrocytes, dry powder, set 2 (AID 1159574); format: functional, cell-based
[14] = TRPM1 promoter luciferase reporter signal decrease, dose response, MITF inhibitor project, cell-based, SK-MEL-5, dry powder, set 9 (AID 651588); format: functional
[15] = MITF Orthogonal Assay: SK-MEL-5 CTG Assay Measured in Cell-Based System Using Plate Reader - 2084-02_Inhibitor_Dose_DryPowder_Activity_Set7.; format: functional
[16] = SK-MEL-5 parental cell viability reduction, dose response, orthogonal assay for MITF inhibitor project, CellTiter-Glo luminescence, dry powder, set 8 (AID 651586); format: functional, cell-based
[17] = MITF Orthogonal Assay: MALME3 CTG Assay Measured in Cell-Based System Using Plate Reader - 2084-04_Inhibitor_Dose_DryPowder_Activity_Set6.; format: functional; settings: MALME-3
[18] = A375 melanoma cell viability loss, dose response, counter-screen for MITF modulator project, CellTiter-Glo luminescence, dry powder, set 9 (AID 651591); format: functional, cell-based; settings: A-375
[19] = TRPM1 promoter luciferase reporter signal decrease, dose response, MITF inhibitor project, cell-based, SK-MEL-5, dry powder, set 8 (AID 624430); format: functional
[20] = MALME3 melanoma cell viability reduction, dose response, orthogonal assay for MITF inhibitor project, CellTiter-Glo luminescence, dry powder, set 5 (AID 651584); format: functional, cell-based; settings: MALME-3
[21] = cytotoxicity in primary human melanocytes, dose response, cytotoxicity control, cell-based, plate reader, dry powder (AID 651920); format: functional
[22] = MITF: Counter assay: A375 proliferation Measured in Cell-Based System Using Plate Reader - 2084-03_Inhibitor_Dose_DryPowder_Activity_Set8.; format: functional; settings: A-375
[23] = target: Glutathione-S-transferase (Schistosoma japonicum, UniProt Q26513); assay: biotin-GST/anti-GST TR-FRET signal inhibitors, dose response, artefact control for Vif-APOBEC3G degradation inhibitor project, biochemical (AID 1117362); format: functional
Sequence of Glutathione-S-transferase (Q26513 whole entry): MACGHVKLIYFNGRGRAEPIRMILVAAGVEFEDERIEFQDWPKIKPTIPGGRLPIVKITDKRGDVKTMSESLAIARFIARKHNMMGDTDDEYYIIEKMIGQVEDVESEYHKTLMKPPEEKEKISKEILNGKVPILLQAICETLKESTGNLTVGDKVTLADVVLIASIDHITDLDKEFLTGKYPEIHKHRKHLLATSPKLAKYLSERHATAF

Brc1ccc(-c2cn3nc4c(nc3n2)CCCC4)cc1
IC50 [1]: 12.3 µM (active)
IC50 [2]: 17.7 µM (active)
IC50 [3]: 17.4 µM (active)
IC50 [4]: > 20 µM (inactive)
IC50 [5]: 21.2 µM (active)

[N-]=[N+]=CC(=O)OC[C@H](N)C(=O)O [AZASERINE]
IC50 [6]: > 20 µM (inactive)
IC50 [7]: > 20 µM (inactive)
IC50 [8]: > 20 µM (inactive)
IC50 [9]: > 20 µM (inactive)
IC50 [10]: > 20 µM (inactive)
IC50 [11]: > 20 µM (inactive)

Cn1c(NC(=O)c2ccccn2)nc2ccccc21
AbsAC90 [12]: 274.28 µM

COc1ccc(NC(=O)N2CCCCN3[C@H](CO)[C@@H](c4ccc(C#Cc5ccccc5)cc4)[C@H]3C2)cc1
AC50 [13]: 4.04 µM (active)

COc1ccc(NC2=C(N3CCCCC3)C(=O)c3ccccc3C2=O)cc1
AC50 [14]: 12 µM (active)
AC50 [15]: 3.73 µM (active)
AC50 [16]: 26.8 µM (active)
AC50 [17]: 11.2 µM (active)
AC50 [18]: 42.4 µM (active)
AC50 [19]: 2.48 µM (active)
AC50 [20]: 11.2 µM (active)
AC50 [21]: 40.9 µM (active)
AC50 [22]: > 70 µM (inactive)

O=C(O)c1ccc(S(=O)(=O)c2ccc([N+](=O)[O-])cc2[N+](=O)[O-])cc1
IC50 [23]: > 100 µM (active)
